From patent publication US9408387B2, “Safening 6-amino-2-(substituted phenyl)-5-substituted-4-pyrimidinecarboxylate herbicide injury on cereal crops” (Dow AgroSciences LLC, priority 2009, dated 2016)

Assays:
Type in all cases: in vivo
[1] = system: purple deadnettle (Lamium purpureum L; LAMPU); assay: Postemergence herbicidal activity, greenhouse, visual injury: purple deadnettle; conditions: Lamium purpureum, post-emergence, 480 h, 20-22 d, read-out: LAMPU Ob (visual injury); for pest or weed control at 70 g/ha: herbicide alone 70 g/ha; for pest or weed control at 140 g/ha: herbicide alone 140 g/ha
Description: (§1) Evaluation of Postemergence Herbicidal Safening in Cereal Crops
(§2) Seeds of the desired test plant species were planted in Sun Gro MetroMix® 306 planting mixture, which typically has a pH of 6.0 to 6.8 and an organic matter content of about 30 percent, in plastic pots with a surface area of 103.2 square centimeters (cm^2). When required to ensure good germination and healthy plants, a fungicide treatment and/or other chemical or physical treatment was applied. The plants were grown for 7-36 days (d) in a greenhouse with an approximate 14-hour (h) photoperiod which was maintained at about 18° C. during the day and 17° C. during the night. Nutrients and water were added on a regular basis and supplemental lighting was provided with overhead metal halide 1000-Watt lamps as necessary. The plants were employed for testing when they reached the second or third true leaf stage.
(§3) Treatments consisted of the acids or esters of compounds 1-10 and cloquintocet-mexyl (CQC-M), fenchlorazole-ethyl, mefenpyr-diethyl alone and in combination. Weighed amounts of acid or methyl esters of the compounds of formula (I) were dissolved in a volume of 97:3 v/v acetone/dimethylsulfoxide (DMSO) to obtain concentrated solutions. […] The concentrated solutions of the test compound were diluted with the addition of an aqueous mixture containing acetone, water, isopropyl alcohol, DMSO, Agri-Dex crop oil concentrate, and Triton® X-77 surfactant in a 64.7:26.0:6.7:2.0:0.7:0.01 v/v ratio. Test compounds were diluted to the appropriate application rate with a dilution solution which was prepared by mixing the appropriate volume of 97:3 v/v acetone/DMSO and the appropriate volume of an aqueous mixture containing acetone, water, isopropyl alcohol, DMSO, Agri-Dex crop oil concentrate, and Triton® X-77 surfactant in a 64.7:26.0:6.7:2.0:0.7:0.01 v/v ratio. Compound requirements are based upon a 12 mL application volume at a rate of 187 liters per hectare (L/ha). The concentrated solutions of the safener were prepared following the same procedure. Weighed amounts of safener were dissolved in a volume of 97:3 v/v acetone/DMSO to obtain concentrated safener solutions.
(§4) Spray solutions of the herbicide safener and test compound mixtures were prepared by adding the concentrated solutions to the appropriate amount of dilution solution to form 12 mL spray solution with active ingredients in combinations.
(§5) Formulated compounds were applied to the plant material with an overhead Mandel track sprayer equipped with 8002E nozzles calibrated to deliver 187 L/ha over an application area of 0.503 square meters (m^2) at a spray height of 18 inches (43 centimeters (cm)) above average plant canopy. Control plants were sprayed in the same manner with the solvent blank.
(§6) The treated plants and control plants were placed in a greenhouse as described above and watered by sub-irrigation to prevent wash-off of the test compounds. After 20-22 d, the condition of the test plants as compared with that of the control plants was determined visually and scored on a scale of 0 to 100 percent where 0 corresponds to no injury and 100 corresponds to complete kill.
(§7) Colby's equation was used to determine the herbicidal effects expected from the mixtures (Colby, S. R. Calculation of the synergistic and antagonistic response of herbicide combinations. Weeds 1967, 15, 20-22.).
(§8) The following equation was used to calculate the expected activity of mixtures containing two active ingredients, A and B: Expected=A+B−(A×B/100)
(§9) A=observed efficacy of active ingredient A at the same concentration as used in the mixture.
(§10) B=observed efficacy of active ingredient B at the same concentration as used in the mixture.

GALAP = assay: Postemergence herbicidal activity, greenhouse, visual injury: GALAP; conditions: 20-22 d
Description: as §1, §2, §3, §4, §5, §6, §7
(§11) The following equation was used to calculate the expected activity of mixtures containing two active ingredients, A and B: Expected=A+B−(A×B/100) […]

[2] = system: spring wheat (Triticum aestivum L; TRZAS); assay: Postemergence herbicidal safening in cereal crops, greenhouse, visual injury: spring wheat; conditions: Triticum aestivum, post-emergence, 480 h, 20-22 d, read-out: TRZAS Ob (visual injury); for pest or weed control at 70 g/ha: herbicide alone 70 g/ha; for pest or weed control at 140 g/ha: herbicide alone 140 g/ha; for pest or weed control at 35 g/ha: herbicide alone 35 g ae/ha
Description: as §1, §2, §3, §4, §5, §6, §7, §8, §9, §10

[3] = system: winter wheat (Triticum aestivum L; TRZAW); assay: Postemergence herbicidal safening in cereal crops, greenhouse, visual injury: winter wheat; conditions: 20-22 d
Description: as §1, §2, §3, §4, §5, §6, §7, §8, §9, §10

AMARE = assay: Postemergence herbicidal activity, greenhouse, visual injury: AMARE; conditions: 20-22 d
Description: as §1, §2, §3, §4, §5, §6, §7, §11

[4] = system: durum wheat (Triticum durum L; TRZDU); assay: Postemergence herbicidal safening in cereal crops, greenhouse, visual injury: durum wheat; conditions: 20-22 d
Description: as §1, §2, §3, §4, §5, §6, §7, §8, §9, §10

[5] = system: spring barley (Hordeum vulgare L; HORVS); assay: Postemergence herbicidal safening in cereal crops, greenhouse, visual injury: spring barley; conditions: Hordeum vulgare, post-emergence, 480 h, 20-22 d, read-out: HORVS Ob (visual injury); for pest or weed control at 70 g/ha: herbicide alone 70 g/ha; for pest or weed control at 140 g/ha: herbicide alone 140 g/ha; for pest or weed control at 35 g/ha: herbicide alone 35 g ae/ha
Description: as §1, §2, §3, §4, §5, §6, §7, §8, §9, §10

[6] = system: winter barley (Hordeum vulgare L; HORVW); assay: Postemergence herbicidal safening in cereal crops, greenhouse, visual injury: winter barley; conditions: 20-22 d
Description: as §1, §2, §3, §4, §5, §6, §7, §8, §9, §10

[7] = system: lamb's-quarters (Chenopodium album L; CHEAL); assay: Postemergence herbicidal activity, greenhouse, visual injury: lamb's-quarters; conditions: herbicide alone 35 g ae/ha; 20-22 d
Description: as §1, §2, §3
Spray solutions of the herbicide safener and test compound mixtures were prepared by adding the concentrated solutions to the appropriate amount of dilution solution to form 12 mL spray solution with active ingredients in combinations. […]
as §6, with “kill. […]” for “kill.”

[8] = system: kochia (Kochia scoparia L; KCHSC); assay: Postemergence herbicidal activity, greenhouse, visual injury: kochia; conditions: 20-22 d
Description: as §1, §2, §3, §4, §5, §6, §7, §8, §9, §10

[9] = system: corn poppy (Papaver rhoeas L; PAPRH); assay: Postemergence herbicidal activity, greenhouse, visual injury: corn poppy; conditions: 20-22 d
Description: as §1, §2, §3, §4, §5, §6, §7, §8, §9, §10

COc1c(Cl)ccc(-c2nc(N)c(Cl)c(C(=O)O)n2)c1F [Compound 1, 6-amino-5-chloro-2-(4-chloro-2-fluoro-3-methoxyphenyl)pyrimidine-4-carboxylic acid]
pest or weed control at 70 g/ha [1]: 95%
pest or weed control at 140 g/ha [1]: 99%
GALAP Ob (visual injury) (GALAP; herbicide alone 70 g/ha): 95%
GALAP Ob (visual injury) (GALAP; herbicide alone 140 g/ha): 95%
pest or weed control at 70 g/ha [2]: 25%
pest or weed control at 140 g/ha [2]: 45%
TRZAW Ob (visual injury) ([3]; herbicide alone 70 g/ha): 35%
TRZAW Ob (visual injury) ([3]; herbicide alone 140 g/ha): 40%
AMARE Ob (visual injury) (AMARE; herbicide alone 70 g/ha): 100%
AMARE Ob (visual injury) (AMARE; herbicide alone 140 g/ha): 100%
TRZDU Ob (visual injury) ([4]; herbicide alone 70 g/ha): 15%
TRZDU Ob (visual injury) ([4]; herbicide alone 140 g/ha): 35%
pest or weed control at 70 g/ha [5]: 15%
pest or weed control at 140 g/ha [5]: 30%
HORVW Ob (visual injury) ([6]; herbicide alone 70 g/ha): 15%
HORVW Ob (visual injury) ([6]; herbicide alone 140 g/ha): 40%

COc1c(N)nc(-c2ccc(C(F)(F)F)cc2)nc1C(=O)O [Compound 3, 6-amino-2-(4-trifluoromethylphenyl)-5-methoxypyrimidine-4-carboxylic acid]
pest or weed control at 8.75 g/ha ([2]; herbicide alone 8.75 g/ha): 15%
pest or weed control at 35 g/ha [2]: 75%
TRZAW Ob (visual injury) ([3]; herbicide alone 8.75 g/ha): 17%
TRZDU Ob (visual injury) ([4]; herbicide alone 8.75 g/ha): 7%
pest or weed control at 8.75 g/ha ([5]; herbicide alone 8.75 g/ha): 13%
pest or weed control at 35 g/ha [5]: 50%
HORVW Ob (visual injury) ([6]; herbicide alone 8.75 g/ha): 8%
CHEAL Ob (visual injury) [7]: 10%

COc1c(N)nc(-c2ccc(C)cc2)nc1C(=O)O [Compound 6, 6-amino-2-p-tolyl-5-methoxypyrimidine-4-carboxylic acid]
pest or weed control at 70 g/ha [1]: 75%
pest or weed control at 140 g/ha [1]: 80%
KCHSC Ob (visual injury) ([8]; herbicide alone 70 g/ha): 60%
KCHSC Ob (visual injury) ([8]; herbicide alone 140 g/ha): 70%
PAPRH Ob (visual injury) ([9]; herbicide alone 70 g/ha): 97%
PAPRH Ob (visual injury) ([9]; herbicide alone 140 g/ha): 100%
pest or weed control at 35 g/ha [2]: 35%
pest or weed control at 70 g/ha [2]: 20%
pest or weed control at 140 g/ha [2]: 55%
pest or weed control at 35 g/ha [5]: 25%
pest or weed control at 70 g/ha [5]: 20%
pest or weed control at 140 g/ha [5]: 40%
CHEAL Ob (visual injury) [7]: 83%
